# What was measured:
# [1] = Acute food intake in 24-h food-deprived rats after i.p. administration; type: in vivo, rat
# Procedure: (§1) Feeding experiments. Acute experiments. Food intake was measured in 24-h food-deprived rats (Navarro et al., J. Neurochem., 67:1982-1991 (1996)), administering drugs 15 min before food presentation. Subchronic experiments. Ad libitum fed rats received vehicle injections for three days. On day four, the animals were divided in two equal groups and gave them daily injections of vehicle or OEA (5 mg per kg at 1900 h) for 7 consecutive days, while measuring body weight, food intake and water intake.
# The effects of systemically administered OEA on food intake in rats can be assessed using a 24 h fast. […] To define the selectivity of this response, various OEA analogs were evaluated for their ability to produce hypophagia.
# [2] = Food intake after intracerebroventricular administration to 24 h food-deprived rats; type: in vivo, rat
# Procedure: as §1
# [3] = Food intake in capsaicin-treated rats (sensory fibers destroyed); type: in vivo, rat; settings: OEA 10 mg per kg, i.p., FIG. 6a,c
# Source text: Chemicals. FAEs and [^2H4] FAEs were synthesized in the laboratory (Giuffrida et al., “Lipid Second Messengers” (ed. Laychock, S. G. & Rubin, R. P.) 113-133 (CRC Press LLC, Boca Raton, Fla., 1998)); 1,2-dioleyl-sn-glycero-phosphoethanolamine-N-oleyl was purchased from Avanti Polar Lipids (Alabaster, Ala.); SR141716A was provided by RBI (Natick, Mass.) as part of the Chemical Synthesis Program of the NIMH (N01MH30003); SR144528 was a generous gift of Sanofi Recherche; all other drugs were from Tocris (Ballwin, Mo.) or Sigma (Saint Louis, Mo.). FAE were dissolved in dimethylsulphoxide (DMSO) and administered in 70% DMSO in sterile saline (acute treatments) or 5% Tween 80/5% propylenglycol in sterile saline (subchronic treatments) (1 ml per kg, i.p.). Capsaicin was administered in 10% Tween 80/10% ethanol/80% saline; SR141716A, SR144528, CCK-8 and CP-93129 in 5% Tween 80/5% propylenglycol/90% saline (1 ml per kg, i.p.).
# These findings support the hypothesis that OEA causes hypophagia by acting at a peripheral site, and that sensory fibers are required for this effect.
# c-fos mRNA = c-fos mRNA in situ hybridization in brain; type: in vivo, rat; settings: 10 mg per kg, i.p., 60 min
# Procedure: In situ hybridization. Rats were accustomed to the handling and injection procedure for five days. On day six, vehicle or drug OEA (10 mg per kg, i.p.), or oleic acid (10 mg per kg) was administered, and the rats killed 60 min later by decapitation under anesthesia. In situ hybridization analyses were conducted using ^35S-labeled cRNA probes for c-fos (Guthrie et al., Proc. Natl. Acad. Sci. U.S.A., 90:3329-3333 (1993)) and choline acetyl transferase (ChAT) (Lauterbom et al., Brain Res. Mol. Brain Res., 17:59-69 (1993)). Average hybridization densities were determined from at least three tissue sections per rat. Statistical significance was evaluated using one-way analysis of variance (ANOVA) followed by the Tukey-Kramer post-hoc test for paired comparisons.
# [4] = Hot plate test, pain threshold; type: in vivo, rat; settings: FIG. 4f
# Procedure: (§2) Other behavioral assays. The elevated plus maze test was conducted as described (Navarro et al., Neuroreport, 8:491-496 (1997)) after the administration of vehicle or OEA (20 mg per kg, i.p.). Horizontal activity in an open field (Beltramo et al., J. Neurosci., 20:3401-3407 (2000)) and pain threshold in the hot plate test (55° C.) (Beltramo et al., Science, 277:1094-1097 (1997)) were measured 15 min after injection of vehicle or OEA (20 mg per kg). Rectal temperature was measured using a digital thermometer (Martin-Calderón et al., Eur. J. Pharmacol., 344:77-86. (1998)).
# Open field activity test = type: in vivo, rat; settings: at a dose substantially higher than those required to produce hypophagia; FIG. 4h
# Procedure: as §2
# Soleus muscle = assay: [14C]oleate oxidation to CO2 in soleus muscle; type: cell-based, rat
# Cardiomyocyte = assay: [14C]oleate oxidation to CO2 in cardiomyocytes; type: cell-based, rat
# Adipocyte = assay: Lypolysis (glycerol release) in adipocytes; type: cell-based, rat
smiles,measurement,setting,value
"CCCCCCCC/C=C\CCCCCCCC(=O)NCCO [OEA, Oleoylethanolamide]",half-maximally effective dose for hypophagia,[1],5 mg per kg
same,suppression of food intake (hypophagia),"[1]; 24-h food-deprived rats, 15 min before food presentation, FIG. 4a,b",dose- and time-dependent suppression
same,effect on food intake after direct injection into the brain ventricles,[2],ineffective
same,"food intake, 60 min",[2]; 0.4 μg per animal,4.8 ± 0.4
same,"food intake, 120 min",[2]; 0.4 μg per animal,6.6 ± 0.4
same,"food intake, 240 min",[2]; 0.4 μg per animal,8.4 ± 0.4
same,"food intake, 60 min",[2]; 2 μg per animal,4.9 ± 0.4
same,"food intake, 120 min",[2]; 2 μg per animal,6.6 ± 0.6
same,"food intake, 240 min",[2]; 2 μg per animal,8.7 ± 0.5
same,"food intake, 60 min",[2]; 10 μg per animal,5.9 ± 0.2
same,"food intake, 120 min",[2]; 10 μg per animal,8.1 ± 0.4
same,"food intake, 240 min",[2]; 10 μg per animal,9.6 ± 0.7
same,food intake response of capsaicin-treated rats,[3],failed to respond
same,c-fos expression in other brain regions,c-fos mRNA,not significantly affected
same,"c-fos mRNA levels in the PVN, supraoptic nucleus and NST",c-fos mRNA,highly localized increase
same,pain threshold,[4],did not alter
same,motor activity,Open field activity test,reduced
same,Stimulatory effect of 10 μM OEA (%) on [14C]oleate oxidation to CO2,"Soleus muscle; Soleus muscle, 10 μM, 30 min incubation",36 ± 10%
same,fatty acid oxidation in words,Soleus muscle; primary cultures of skeletal muscle (soleus),significantly stimulates
same,Stimulatory effect of 10 μM OEA (%) on [14C]oleate oxidation to CO2,"Cardiomyocyte; Cardiomyocyte, 10 μM, 30 min incubation",37 ± 9%
same,fatty acid oxidation in words,Cardiomyocyte; primary cultures of heart cells,significantly stimulates
same,Stimulatory effect of 10 μM OEA (%) on lypolysis (glycerol release),"Adipocyte; Adipocyte, 10 μM, 30 min incubation",38 ± 16%
same,mobilization of triacylglycerol stores,Adipocyte; primary white adipose tissue cells,significant mobilization

# — US6911474B2, “Methods, compounds, and compositions for reducing body fat and modulating fatty acid metabolism” (The Regents of the University of California, priority 2001, dated 2005)
